Where no end group is shown, it is not given here. [ ]: non-standard residue; d: D form. pS = N[C@@H](COP(=O)(O)O)C(=O)O
Columns and labels:
[1] = Scanning microradiography (SMR) of demineralisation of HAp blocks coated for 24 h with peptide; settings: for RDHAp of coated HAp compared to uncoated control: 24 h coating, StN21 0.75 to 3.76×10^−4 mol l^−1, lysozyme 0.11×10^−4 mol l^−1, pH 4.5; for rate of demineralisation of HAp (RDHAp): 0.1 mol l^−1 acetic acid pH 4.5, 3 weeks
Text: HAp pellets are used in many studies instead of enamel blocks to prevent effect of enamel organic impurities and its natural surface on rate of demineralisation (Anderson et al., 2004). Statherin could not be isolated in a sufficiently pure form from saliva. Therefore N-terminal 21 residue fragment of statherin (StN21) was chemically synthesised using standard FastMoc synthesis (Fields et al., 1990). Also SXE motif, responsible for calcium binding in caseins, is present in this 21 amino-acid fragment of statherin. To exclude the possibility that StN21 act solely as a semi-permeable membrane, lysozyme was used as a negative control.
Hydroxyapatite (HAp) pellets of 20 wt % porosity (Plasma Biotal Ltd, UK) were sliced into 3×3 mm blocks with 2 mm thickness using Microslice 2 cutter (Malvern Instruments Ltd.). Entire surface of the block, except one side was coated with acid resistant nail varnish. Ten HAp blocks were put into a solution saturated with respect to HAp for 24 hours to equilibrate. After equilibration, four HAp blocks were exposed for 24 h to 0.5 ml of four different concentrations of StN21 peptide dissolved in modified buffer (100 mmol^−1 NaCl, 40 mmol^−1 KCl, 4.3 mmol^−1 Na2HPO4, and 1.4 mmol^−1 KH2PO4, pH 7.4). The concentrations of StN21 peptide were 0.75, 1.13, 1.88 and 3.76×10^−4 mol l^−1. As a negative control one HAp pellet was put into 0.5 ml of solution containing lysozyme at concentration of 0.11×10^−4 mol l^−1.
Scanning microradiography (SMR) is a technique for observing very subtle changes in mineral mass during re and demineralisation of enamel and HAp. It allows observation period of up to 1000 h without disruptions to the specimen. Also, conditions can be modified and the effect of applied modifications on the samples can be monitored. SMR (Anderson et al., 2004) is an X-ray photon counting technique where the intensity of 15 μm X ray beam is attenuated by passing through the specimen and the transmitted photons are counted by an X-ray detector.
HAp blocks were placed in the wells of SMR cells (FIG. 2). Each SMR cell contained one HAp block coated with protein and one as a control. As an additional control, in one SMR cell two uncoated HAp blocks were placed in one SMR cell. The reservoir of the SMR cell is approximately 1.2 ml and solution is circulating past the HAp blocks at 0.4 ml min^−1.
Demineralising solution was 0.1 mol l^−1 acetic acid, buffered to pH 4.5 with 1 mol l^−1 NaOH; 1 mmol l^−1 calcium and 0.6 mmol l^−1 phosphate ions.
SMR was used to monitor changes in mineral mass at 12 positions 10 μm apart, along 2 lines in each well. Scanning time was 30 s per position. Total period of observation was 3 weeks. The rate of mineral change at each position was calculated by linear least squares fitting.

[2] = SMR of demineralisation of HAp blocks after 3 min immersion(s) in STN21 solution; settings: STN21 1.88×10^−4 mol l^−1, pH 4.5
Method: STN21 was synthesised using Fmoc solid state synthesis. Hydroxyapatite (HAp) pellets were cut into 5×5×2 mm blocks and covered with acid-resistant varnish leaving one surface exposed and immersed in STN21 solution (1.88×10^−4 mol l^−1) for 3 min. The pellets were then located in scanning microradiography (SMR) cells. Demineralising solution (0.1 mol l^−1 acetic acid, pH 4.5) was circulated (0.4 ml min^−1) for 3 weeks.
Five samples were exposed to further twice daily 3 min. immersions in STN21 solution. Changes in mineral mass were measured using SMR for 28 days.

[3] = lysozyme bound to HAp surface; cited from earlier work

Row | Substance | effect on RDHAp at lowest concentration ([1]; 9.4×10^−6 molar, equivalent to 25 mg/litre) | RDHAp of coated HAp compared to uncoated control [1] | rate of demineralisation of HAp (RDHAp) ([1]; StN21 coating concentration 0.75×10^−4 mol l^−1, 24 h exposure) | rate of demineralisation of HAp (RDHAp) ([1]; StN21 coating concentration 1.13×10^−4 mol l^−1, 24 h exposure) | rate of demineralisation of HAp (RDHAp) ([1]; StN21 coating concentration 1.88×10^−4 mol l^−1, 24 h exposure) | rate of demineralisation of HAp (RDHAp) ([1]; StN21 coating concentration 3.76×10^−4 mol l^−1, 24 h exposure) | decrease in rate of mineral loss compared to a non-coated control ([2]; one 3 min period only) | decrease in demineralisation rate ([2]; repeated twice daily 3 min immersions) | influence on rate of demineralisation of HAp [3]
1 | DpSpSEEKFLRRIGRFGYGYGPY (D[pS][pS]EEKFLRRIGRFGYGYGPY; UniProt P02808 20-40, looked up, fragment) [StN21, N-terminal fragment of statherin which consists of 21 amino acids; pS = phosphorylated serine] | effective | significantly lower | 2.2 ×10^−5 g cm^−2 h^−1 | 1.9 ×10^−5 g cm^−2 h^−1 | 1.7 ×10^−5 g cm^−2 h^−1 | 1.8 ×10^−5 g cm^−2 h^−1 | 17% | 45% | 
2 | lysozyme [reference compound] |  | very similar results to uncoated (control) blocks |  |  |  |  |  |  | does not influence rate of demineralisation of HAp
